Reference: patent US8450354B2, “Substituted imidazo[1,2-b]pyridazine derivatives, pharmaceutical compositions, and methods of use as β-secretase inhibitors” (High Point Pharmaceuticals, LLC, priority 2010, dated 2013)

Legend:
[1] = Aβ Cell Based Assay (Aβ1-40 secretion, ELISA); parameters: species or system human; settings: Homo sapiens, HEK293; HEK-APPwt cells, 6 hours incubation, reduction of Aβ1-40 secretion; asterisk = mean
Procedure: Aβ Cell Based Assay Procedure
In the following assay, the proteolytic activity of BACE in cells exposed to varying concentrations of a compound of interest is measured by observing the amount of Aβ1-40 secreted from HEK293 cells (Human Embryonic Kidney epithelial cell line) stably expressing wildtype human APP695 protein (HEK-APPwt cells).
HEK-APPwt cells were grown in high glucose DMEM (Dulbecco's Modified Eagles Medium SIGMA Cat. #D5796) supplemented with 25 mM HEPES (4-(2-hydroxyethyl)-1-piperazineethanesulfonic acid) (pH 7.4) (Invitrogen Cat. #15630-114), 0.1 mM NEAA (Non-essential Amino Acids) (BioWhittaker Cat. #13-114E), 10% fetal bovine serum (SIGMA Cat. #F4135) and 250 μg/mL hygromycin (Invitrogen Cat. #10687-010) in T-225 flasks at 37° C. with 5% CO2 and humidity control.
Test compounds were initially prepared in DMSO and diluted with DMEM media containing 2% FBS (Fetal bovine serum). Ten standard compound solutions were prepared having a range of concentrations. The standard compound solutions were used to determine the EC50 of the test compound. The range of concentrations chosen may depend on the compound's predicted potency.
To prepare cells for the assay, a flask containing HEK-APPwt cells were trypsinized briefly (1 mL trypsin), and once the cells detached, 4 mL of 10% FBS-DMEM was added to the flask. The detached cells were centrifuged at 900 rpm for 5 min to form a pellet.
The HEK-APPwt cell pellet was re-suspended with 10 mL DMEM media containing 2% FBS. 80 μL of the cell suspension was added to each well of a 96-well cell culture plate to give 100×10^4 cells/ml. 10 μL of a standard compound solution was added to each well of the 96-well cell culture plate followed by 10 μL of Alamar blue solution. The cells were incubated at 37° C. in a 5% CO2 incubator for 6 hours.
At the end of the incubation, the plates were removed from incubator, and the supernatant was collected. Aβ1-40 concentration in the medium was measured by using a commercial Aβ1-X ELISA kit (IBL, Japan Cat. #27729). Briefly, the ELISA plates were coated with an anti-human Aβ (N)(82E1) mouse IgG monoclonal antibody. A horseradish peroxidase conjugated anti-human Aβ11-28 mouse IgG monoclonal antibody was used for detection. The cell culture supernatant was diluted with EIA buffer+protease inhibitors (kit buffer containing protease inhibitors (1 mL PI/30 mL buffer)). A 100 μL aliquot of the diluted supernatant was added to each well of the ELISA plate and incubated for 6 hrs at 4° C. The ELISA plate was washed 8 times with phosphate buffered saline (PBS) containing 0.05% TWEEN 20.
A 100 μL of detection antibody was then added and incubated for 1 hour at 4° C. The plate was washed 8 times with PBS buffer containing 0.05% Tween 20 followed by addition of 100 μL of the chromogen tetramethylbenzidine (TMB). The plate was incubated in the dark at room temperature for about 30 min and a stop solution (1N H2SO4) was added.
The intensity of the color developed was measured at 450 nm. The optical density at 450 nm (OD450) is proportional to the concentration of human Aβ1-40 secreted by the cell. As a reference, N—[N-(3,5-difluorophenacetyl-L-alanyl)]—S-phenylglycine t-butyl ester (DAPT, a γ-secretase inhibitor) was used to indicate 100% inhibition of […]. Thus, the assay measures the ability of a compound of interest to reduce Aβ1-40 secretion. Compound potency is reported in Table 3 as the EC50 by calculating the percent inhibition at all concentration levels and the data were fit with non-linear curve fitting algorithm using GraphPad Prism.

[2] = target: T1, BACE-1 enzyme (Homo sapiens, UniProt P56817); assay: BACE Fluorescence Resonance Energy Transfer (FRET) Assay; type: biochemical; settings: pH 4-4.5, 30 min pre-incubation, about 1.5 hours reaction, asterisk = mean
T1 construct: purchased R & D Systems 931AS
Procedure: BACE Fluorescence Resonance Energy Transfer (FRET) Assay
In the following assay, the proteolytic activity of BACE is measured by observing cleavage of a fluorescent group from a peptide substrate containing a rhodamine fluorescent donor and a quenching acceptor.
The inhibitory activity of compounds of Formula (I) may be compared to a statine derived control inhibitor STA200 (MP Biomedical Cat. #STA-200). The cleavage reaction occurs when a BACE-1 substrate (Invitrogen, Cat. #P2986) was added to a reaction mixture containing BACE-1 enzyme (R & D Systems, Cat. #931AS) and allowed to proceed for about 1.5 hours. Fluorescence, used as a marker of BACE activity, is monitored using 540 nm excitation and 585 nm emission wavelengths (Envision, Perkin Elmer).
A typical assay reaction contains BACE-1 enzyme-in assay buffer (50 mM sodium acetate, pH 4-4.5, 0.01% CHAPS (3-[(3-Cholamidopropyl)dimethylammonio]-1-propanesulfonate), 0.0125% TritonX-100, 0.006% EDTA) which is pre-incubated for 30 minutes with test compound in 7.5% DMSO. The reaction is initiated with the addition of BACE-1 substrate in assay buffer and allowed to proceed for about 1.5 hours at room temperature. Assays are conducted in black 384-well microtiter plates and scanned at room temperature using 540 nm excitation and 585 nm emission wavelengths.
In some instances, the percent inhibition at a given concentration is reported instead of the IC50.

T1 sequence (P56817 46-457 limits assumed): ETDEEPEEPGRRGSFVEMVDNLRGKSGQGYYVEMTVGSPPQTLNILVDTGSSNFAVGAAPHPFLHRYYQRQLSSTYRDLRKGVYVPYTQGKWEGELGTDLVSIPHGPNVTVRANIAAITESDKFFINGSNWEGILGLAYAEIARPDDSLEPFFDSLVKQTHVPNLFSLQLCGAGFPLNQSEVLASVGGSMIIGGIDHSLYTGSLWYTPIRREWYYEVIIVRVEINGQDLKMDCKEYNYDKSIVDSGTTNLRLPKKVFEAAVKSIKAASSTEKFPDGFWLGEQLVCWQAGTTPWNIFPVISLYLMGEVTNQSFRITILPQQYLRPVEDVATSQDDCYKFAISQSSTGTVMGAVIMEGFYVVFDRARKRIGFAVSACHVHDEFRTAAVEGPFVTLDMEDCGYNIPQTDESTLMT

| SMILES | EC50 [1] [µM] | IC50 [2] [µM] |
| --- | --- | --- |
| O=C(Nc1nc2cc(-c3cc(F)cc(Cl)c3)ccc2[nH]1)c1cn2nc(OCCCCO)ccc2n1 [Example 130] | 0.23 | 0.169 |
| O=C(Nc1nc2cc(-c3cc(F)cc(Cl)c3)ccc2[nH]1)c1cn2nc(OCCN3CCCC3=O)ccc2n1 [Example 54] | 0.87 | 0.211 |
| O=C(Nc1nc2cc(-c3cc(F)cc(Cl)c3)ccc2[nH]1)c1cn2nc(OC3COC4C(O)COC34)ccc2n1 (centres unmarked) [Example 133] | 0.56 | 0.262 |
| O=C(Nc1nc2cc(-c3cc(F)cc(Cl)c3)ccc2[nH]1)c1cn2nc(OCCN3CCOCC3)ccc2n1 [Example 50] | 0.58 | 0.267 |
| O=C(Nc1nc2cc(-c3cc(F)cc(Cl)c3)ccc2[nH]1)c1cn2nc(OCC3(CO)CCC3)ccc2n1 [Example 132] | 0.47 | 0.344 |
| CC(C)(O)COc1ccc2nc(C(=O)Nc3nc4cc(-c5cccc(OC(F)(F)F)c5)ccc4[nH]3)cn2n1 [Example 112] | 0.48 | 0.251 |
| CC[C@H](O)COc1ccc2nc(C(=O)Nc3nc4cc(-c5cc(F)cc(Cl)c5)ccc4[nH]3)cn2n1 [Example 106] | 0.86 | 0.139 |
| C[C@@H](O)CCOc1ccc2nc(C(=O)Nc3nc4cc(-c5cc(F)cc(Cl)c5)ccc4[nH]3)cn2n1 [Example 118] | 1.06 | 0.318 |
| COCCOc1ccc2nc(C(=O)Nc3nc4cc(-c5ccc(Cl)c(C(F)(F)F)c5)ccc4[nH]3)cn2n1 [Example 62] | – | 0.335 |
| COCCOc1ccc2nc(C(=O)Nc3nc4cc(-c5cccc(C(F)(F)F)c5)ccc4[nH]3)cn2n1 [Example 8, 6-(2-Methoxy-ethoxy)-imidazo[1,2-b]pyridazine-2-carboxylic acid [5-(3-trifluoromethyl-phenyl)-1H-benzoimidazol-2-yl]-amide] | – | 0.28 |
| CC1CCC(c2ccc3[nH]c(NC(=O)c4cn5nc(N6CCOCC6)ccc5n4)nc3c2)CC1 (centres unmarked) [Example 81] | – | 0.393 |
| CC(C)NCCOc1ccc2nc(C(=O)Nc3nc4cc(-c5cccc(C(F)(F)F)c5)ccc4[nH]3)cn2n1 [Example 38] | – | 0.27 |
| CCN(CC)CCCOc1ccc2nc(C(=O)Nc3nc4cc(-c5cc(F)cc(Cl)c5)ccc4[nH]3)cn2n1 [Example 20] | – | 0.205 |
| CC(C)N(CCOc1ccc2nc(C(=O)Nc3nc4cc(-c5cccc(C(F)(F)F)c5)ccc4[nH]3)cn2n1)C(C)C [Example 42] | – | 0.365 |
| O=C(Nc1nc2cc(-c3cccc(C(F)(F)F)c3)ccc2[nH]1)c1cn2nc(OCCN3CCCC3)ccc2n1 [Example 71] | – | 0.327 |
| CN1CCN(CCOc2ccc3nc(C(=O)Nc4nc5cc(-c6cc(F)cc(Cl)c6)ccc5[nH]4)cn3n2)CC1 [Example 55] | – | 0.212 |
| CN(C)CCCOc1ccc2nc(C(=O)Nc3nc4cc(-c5cccc(C(F)(F)F)c5)ccc4[nH]3)cn2n1 [Example 72] | – | 0.216 |
| COC1CCN(c2ccc3nc(C(=O)Nc4nc5cc(C6CCC(C)(C)CC6)ccc5[nH]4)cn3n2)CC1 [Example 87] | – | 0.56 |
| CO[C@H]1CCN(c2ccc3nc(C(=O)Nc4nc5cc(-c6ccc(C)s6)ccc5[nH]4)cn3n2)C1 [Example 91] | – | 2.34 |
| CC(C)NCCOc1ccc2nc(C(=O)Nc3nc4cc(-c5cccc(OC(F)(F)F)c5)ccc4[nH]3)cn2n1 [Example 28] | – | 0.253 |
| O=C(Nc1nc2cc(-c3cccc(C(F)(F)F)c3)ccc2[nH]1)c1cn2nc(N3CCNCC3)ccc2n1 [Example 80] | – | 0.2 |

| SMILES | EC50 [1] [µM] | IC50 [2] [µM] |
| --- | --- | --- |
| CC(C)OCCOc1ccc2nc(C(=O)Nc3nc4cc(-c5cccc(C(F)(F)F)c5)ccc4[nH]3)cn2n1 [Example 23] | – | 0.272 |
| CCOCCOc1ccc2nc(C(=O)Nc3nc4cc(-c5cccc(C(F)(F)F)c5)ccc4[nH]3)cn2n1 [Example 22] | – | 0.249 |
| O=C(Nc1nc2cc(-c3cccc(OC(F)(F)F)c3)ccc2[nH]1)c1cn2nc(OCCN3CCCC3)ccc2n1 [Example 21] | – | 0.318 |
| O=C(Nc1nc2cc(-c3cc(F)cc(Cl)c3)ccc2[nH]1)c1cn2nc(OCC[C@@H](O)CO)ccc2n1 [Example 129] | – | 0.293 |
| CN(C)CCOc1ccc2nc(C(=O)Nc3nc4cc(-c5cc(F)cc(Cl)c5)ccc4[nH]3)cn2n1 [Example 15] | – | 0.272 |
| O=C(Nc1nc2cc(-c3cccc(OC(F)(F)F)c3)ccc2[nH]1)c1cn2nc(OCCN3CCCCCC3)ccc2n1 [Example 34] | – | 0.27 |
| CC(C)(C)NCCOc1ccc2nc(C(=O)Nc3nc4cc(-c5cc(F)cc(Cl)c5)ccc4[nH]3)cn2n1 [Example 52] | – | 0.223 |
| CN(C)CCCOc1ccc2nc(C(=O)Nc3nc4cc(-c5cc(F)cc(Cl)c5)ccc4[nH]3)cn2n1 [Example 17] | – | 0.171 |
| COc1ccc2nc(C(=O)Nc3nc4cc(OCc5ccc(C(F)(F)F)cc5)ccc4[nH]3)cn2n1 [Example 5] | – | 0.095 |
| C[C@@H](N)COc1ccc2nc(C(=O)Nc3nc4cc(-c5cccc(C(F)(F)F)c5)ccc4[nH]3)cn2n1 [Example 73] | – | 0.346 |
| O=C(O)CCNc1ccc2nc(C(=O)Nc3nc4cc(-c5cccc(Cl)c5)ccc4[nH]3)cn2n1 [Example 96] | – | 0.328 |
| CCC[C@H](O)COc1ccc2nc(C(=O)Nc3nc4cc(-c5cc(F)cc(Cl)c5)ccc4[nH]3)cn2n1 [Example 125] | – | 1.18 |
| CC(C)(C)NCCOc1ccc2nc(C(=O)Nc3nc4cc(-c5cccc(C(F)(F)F)c5)ccc4[nH]3)cn2n1 [Example 24] | – | 0.291 |
| O=C(Nc1nc2cc(C3CCCC3)ccc2[nH]1)c1cn2nc(N3CC[C@@H](O)C3)ccc2n1 [Example 95] | – | 0.431 |
| CC(C)N(CCOc1ccc2nc(C(=O)Nc3nc4cc(-c5cc(F)cc(Cl)c5)ccc4[nH]3)cn2n1)C(C)C [Example 48] | – | 0.315 |
| CO[C@@H]1CCN(c2ccc3nc(C(=O)Nc4nc5cc(C6CCC(C)(C)CC6)ccc5[nH]4)cn3n2)C1 [Example 89] | – | 0.16 |
| CCOCCCOc1ccc2nc(C(=O)Nc3nc4cc(-c5cccc(C(F)(F)F)c5)ccc4[nH]3)cn2n1 [Example 13] | – | 0.368 |
| NCCOc1ccc2nc(C(=O)Nc3nc4cc(-c5cccc(C(F)(F)F)c5)ccc4[nH]3)cn2n1 [Example 60] | – | 0.14 |
| CC1(C)CCC(c2ccc3[nH]c(NC(=O)c4cn5nc(C6CCNCC6)ccc5n4)nc3c2)CC1 [Example 82] | – | 1.07 |
| CN(C)CCOCCOc1ccc2nc(C(=O)Nc3nc4cc(-c5cccc(C(F)(F)F)c5)ccc4[nH]3)cn2n1 [Example 59] | – | 0.194 |
| O=C(Nc1nc2cc(-c3cccc(C(F)(F)F)c3)ccc2[nH]1)c1cn2nc(N3CCOCC3)ccc2n1 [Example 65] | – | 0.238 |
